Test results from patent US9204643B2, “Temperature stable cloquintocet-mexyl aqueous compositions” (Dow AgroSciences LLC, priority 2012, dated 2015).

Tests used:
[1] = One year storage stability of hydrated CQCM/pyroxsulam concentrate in an unheated shed; assay type: physicochemical
Description: A 10 L production batch of the composition shown in Table 4 was prepared, dispatched for field trials in Australia, and stored for 1 year in an unheated shed subjected to temperatures ranging from −4° C. to 43° C.

[2] = Storage of hydrated CQCM/pyroxsulam concentrate two weeks at 54° C., chemical stability; assay type: physicochemical; settings: for Chemical Stability: in hydrated CQCM/pyroxsulam concentrate
Description: The aqueous phase was formed by combining water, propylene glycol, antifoam, and wetter surfactant (SYNPERONIC 13/6.5; Croda USA) in a vessel. Powdered anhydrous CQCM was added to the aqueous phase and mixed with a low shear turbine type agitator for 1 hour or until the CQCM was fully converted to the hydrate. A tallow or coco-amine 15 mole ethoxylate (e.g., ETHOMEEN C-25; Akzo Nobel), and MORWET D-425 (Akzo Nobel) were added and mixed in with high shear agitation, followed by the addition of the remaining ingredients shown in Table 4. KELZAN S is a thickener commercially available from CPKelco; Atlanta, Ga. The slurry was then processed through a bead mill to yield the finished product. Short term accelerated storage testing was conducted using freeze/thaw (F/T) conditions during which the temperature was cycled between about −10° C. and 40° C. in a 2 hour period after remaining at −10° C. or 40° C. for 24 hours, as in Example 1. Samples of the composition containing pyroxsulam were also stored for two weeks at 54° C. to evaluate chemical stability of the CQCM […].

SMILES	Chemical Stability: Content ([1]; after 1 year, −4° C. to 43° C.)	Chemical Stability: Retention ([1]; after 1 year, −4° C. to 43° C.)	Chemical Stability: Content ([1]; initial)	Chemical Analysis (content in concentrate) ([2]; 54° C. (2 weeks)) [% w/w]	Chemical Stability ([2]; 54° C. (2 weeks)) [%]	Chemical Analysis (content in concentrate) ([2]; initial composition) [% w/w]
CCCCCC(C)OC(=O)COc1ccc(Cl)c2cccnc12 (stereo not drawn) [CQCM, Cloquintocet-mexyl]	CQCM: 14.40 % w/w	CQCM: 102%	CQCM: 14.15 % w/w	13.24	97	13.69
COc1cc(OC)n2nc(NS(=O)(=O)c3c(C(F)(F)F)ccnc3OC)nc2n1 [Pyroxsulam]	Pyroxsulam: 4.84 % w/w	Pyroxsulam: 104%	Pyroxsulam: 4.65 % w/w	4.73	102	4.65
